From patent publication US20150313897A1, “METHODS FOR TREATING PARKINSON'S DISEASE” (Teva Pharmaceuticals International GmbH, priority 2009, published 2015)
Entries after “also recorded” stand apart in the source; their conditions may differ.

Tests used:
Format in all cases: in vivo, rhesus monkeys
MPTP treated monkeys [1] = assay: Clinical Rating Scale (CRS) in primate model of Parkinson's Disease; conditions: NP201 at 1/9th of the oral dose; p<0.05
Description: In the MPTP Induction Phase, the monkeys were made bilaterally Parkinsonian with the use of MPTP. Monkeys received an initial dose of 0.3 mg/kg MPTP through a unilateral intracarotid injection and twice weekly injections of 0.3 mg/kg intravenous (i.v.) MPTP until they achieve a score of between 7.0 and 20.5 (e.g., 12 or higher) on the clinical rating scale with moderate bilateral Parkinsonism. Intravenous MPTP is administered at 3-5 day intervals. The actual cumulative number of i.v. MPTP injections is determined by the onset of stable bilateral symptoms. This protracted time course of i.v. MPTP administration allowed for development and evaluation of new Parkinsonian symptoms following each MPTP administration. […]
In the Experimentation Phase, the monkeys were assigned to one of three treatment groups: Group 1—oral ropinirole TID using the mean lowest effective dose determined in the Dose Finding Phase. […]
A Clinical Rating Scale for neurobehavioral examination was used to assess the clinical status of the monkeys under; normal, MPTP, and MPTP+treatment conditions, once per week, according to previously published protocols. […] Subjects were assessed once per week. All groups were assessed one hour after dosing. […] Occurrence of dyskinesia, psychological disturbances and vomiting were also recorded.

[2] = Ropinirole plasma levels (PK) after NP201 implant or TID oral ropinirole; conditions: oral ropinirole group relative to NP201
Description: (§1) In the Experimentation Phase, the monkeys were assigned to one of three treatment groups: Group 1—oral ropinirole TID using the mean lowest effective dose determined in the Dose Finding Phase. Group 2—NP201 releasing ropinirole at a dose of either approximately 1/9th or 1/18th of the total daily oral TID dose), e.g., for a single 1.00 mg/kg oral dose, the daily dose would be 3.00 mg/kg/day and the implant doses would then be 0.33 mg/kg/day or 0.17 mg/kg/day, respectively. Group 3—Control group will receive both a subcutaneous placebo implant and an oral placebo TID.
In order to collect Pharmacokinetic (“PK”) samples, monkeys were tranquilized with ketamine (7-10 mg/kg intramuscularly) in order to collect 1 cc of blood from the saphenous vein. Plasma samples were collected into appropriately labeled collection tubes. One cc blood samples were collected by catheter or venipuncture into EDTA collection tubes for ropinirole plasma concentrations by a validated HPLC with MS/MS detection. The plasma samples were frozen within two hours after collection and remained frozen until analyzed. PK Samples for the Dose Finding Phase (Oral dose) were drawn on days 1 and 14 at 60, 120, 180, 240 and 360 minutes after one oral dose of 1.0 mg/kg. PK Samples for the Experimentation Phase (NP201 implants) were drawn in all […] test groups in order to test the blood levels of ropinirole. […]

MPTP treated monkeys [3] = assay: Activity monitoring system (AMS), 12-hour light/dark cycle
Description: as §1
The activity monitoring system (“AMS”) records a 12-hour light/dark cycle. Each monkey was fitted with a monkey jacket that contained an activity monitor (Actitrac 1M Systems, Baltimore, Md.) in the inside back pocket. This activity monitor measured motion along its vertical and horizontal axes digitizing acceleration signals at a 40 Hertz sampling rate and stored the average acceleration value calculated during each consecutive time interval. The number of pulses was expressed for a pre-selected time period (1 minute). Data was collected continuously in 1-minute bins for a period of to 14 days. At the end of the period, the monkeys were again tranquilized with ketamine (15 mg/kg, intramuscularly), the activity monitor was removed and interfaced with a computer, and the data was downloaded. The data was expressed as the mean activity of each 12-hour light/dark cycle.

In the case of CCCN(CCC)CCc1cccc2c1CC(=O)N2 [oral ropinirole, 4-(2-di-n-propylaminoethyl)-2(3H)-indolone], the “CRS measure versus placebo” value (MPTP treated monkeys [1]) is reported as “statistically superior to placebo”, the “variability of plasma levels” value [2] is reported as “much greater variability” and the “activity levels, Sat-Sun (weekend)” value (MPTP treated monkeys [3]; days 10-42, versus pre-MPTP baseline and placebo, no active oral agent given on weekend days) is reported as “resembled placebo with reduced activity relative to baseline; also recorded: indistinguishable from placebo”. The “activity levels, Wed-Fri” value (MPTP treated monkeys [3]; days 10-42, versus pre-MPTP baseline, oral: peak about 1 hour after each dose during wake cycle) was “exceeded baseline, pre-MPTP levels” and the “overall pattern of activity (12-hour light/dark cycles)” value (MPTP treated monkeys [3]; versus pre-MPTP baseline / healthy monkeys) was “alternating periods of very high activity interspersed with normal levels; also recorded: alternating periods of very high and normal activity”.
